Source: paper PMC11091879, “Inhibitors of the Thioesterase Activity of Mycobacterium tuberculosis Pks13 Discovered Using DNA-Encoded Chemical Library Screening” (ACS Infectious Diseases, 2024)

Tests used:
Format in all cases: cell-based, Mycobacterium tuberculosis
[1] = system: H37Rv Pks13-TE R1563H mutant
[2] = system: H37Rv Pks13-TE A1561 V mutant
[3] = system: H37Rv Pks13-TE A1564D mutant
[4] = system: H37Rv Pks13-TE N1640K mutant
[5] = system: H37Rv Pks13-TE V1537A mutant
[6] = system: H37Rv Pks13-TE V1687F mutant
[7] = system: H37Rv Pks13-TE Y1674C mutant
[8] = system: H37Rv Pks13-TE Y1686C mutant
[9] = system: WT H37Rv

| SMILES | Fold Change in MIC (Mutant MIC/WT H37Rv MIC) [1] | Fold Change in MIC (Mutant MIC/WT H37Rv MIC) [2] | Fold Change in MIC (Mutant MIC/WT H37Rv MIC) [3] | Fold Change in MIC (Mutant MIC/WT H37Rv MIC) [4] | Fold Change in MIC (Mutant MIC/WT H37Rv MIC) [5] | Fold Change in MIC (Mutant MIC/WT H37Rv MIC) [6] | Fold Change in MIC (Mutant MIC/WT H37Rv MIC) [7] | Fold Change in MIC (Mutant MIC/WT H37Rv MIC) [8] | frequency of resistance (FOR) [9] |
| --- | --- | --- | --- | --- | --- | --- | --- | --- | --- |
| CO[C@H]1/C=C/O[C@@]2(C)Oc3c(C)c(O)c4c(O)c(c(/C=N/N5CCN(C)CC5)c(O)c4c3C2=O)NC(=O)/C(C)=C\C=C\[C@H](C)[C@H](O)[C@@H](C)[C@@H](O)[C@@H](C)[C@H](OC(C)=O)[C@@H]1C [Rifampicin, reference compound] | 0.9 fold | 1.2 fold | 0.8 fold | 1.5 fold | 1.3 fold | 1.2 fold | 1.6 fold | 1 fold | – |
| COc1ccc(OC)c(-c2ccc(-c3cn(CCc4ccc(C(=O)N(C)C)cc4)nn3)cn2)c1 [X20404] | >63 fold | 40 fold | >63 fold | 37 fold | >63 fold | >63 fold | >63 fold | 19 fold | 4.7 × 10^–7 |
| Cc1cc(C(=O)NCc2ccncc2)nc(N2CCC(C(=O)N3CCN(C(=O)c4cnc5c(C)cccc5c4)CC3)CC2)n1 [X21429] | 1.6 fold | >57 fold | 17 fold | >57 fold | 8.8 fold | 2.3 fold | 18 fold | 3.8 fold | – |
